Measurements from patent US8026257B2 (Bristol-Myers Squibb Company, priority 2007, dated 2011).
Like-named read-outs stand apart in the source and are kept apart here.

Tests used:
hSERT = hSERT (Homo sapiens, UniProt P31645); experiment: SERT radioligand binding assay ([125I]RTI-55, HEK-hSERT membranes); details: HEK-293 hSERT membranes, 260 pM [125I]RTI-55, 1 hour at room temperature
Summary of the method: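 IC50 values derive from four-parameter fits of triplicate percent-inhibition curves, with DMSO as 0% and fluoxetine as 100%. Binding used [125I]RTI-55 at its Kd (520 pM 2× solution) and HEK-hSERT membranes (15 ug/ml 2×) in Tris/NaCl/KCl, pH 7.5, 1 hour, room temperature. Filter-bound radioactivity was counted.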

NK-1 = target: T1, NK-1 (Homo sapiens, UniProt P25103); experiment: NK1 radioligand binding assay ([125I]Substance P, U373 membranes); details: U373 cell membranes, 200 pM [125I]Substance P, 1 hour at room temperature
T1 construct: 30 ul/well of a 2×U373 membrane preparation
T1 sequence (P25103 whole entry): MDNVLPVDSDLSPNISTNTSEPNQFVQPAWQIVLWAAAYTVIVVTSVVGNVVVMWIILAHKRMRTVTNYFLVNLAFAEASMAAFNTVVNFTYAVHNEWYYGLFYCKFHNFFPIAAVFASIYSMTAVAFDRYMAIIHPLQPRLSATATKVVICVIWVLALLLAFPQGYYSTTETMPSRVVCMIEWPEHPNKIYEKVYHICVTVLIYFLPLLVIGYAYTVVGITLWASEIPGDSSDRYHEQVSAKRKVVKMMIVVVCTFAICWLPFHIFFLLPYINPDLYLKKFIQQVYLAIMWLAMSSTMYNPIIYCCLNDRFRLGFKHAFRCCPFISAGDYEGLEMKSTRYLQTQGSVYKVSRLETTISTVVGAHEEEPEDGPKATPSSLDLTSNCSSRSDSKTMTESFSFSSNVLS
Summary of the method: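 Displacement of Kd-level [125I]Substance P (400 pM 2× stock) from U373 membranes in pH 7.5 Tris-Cl/MgCl2 buffer with protease inhibitors, 1 h, room temperature. Filtration onto GF/B, then scintillation counting. Percent inhibition, referenced to DMSO and L-733,060 wells, fitted by four-parameter equation to give IC50; triplicate plates.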

hSERT, sequence (P31645 whole entry): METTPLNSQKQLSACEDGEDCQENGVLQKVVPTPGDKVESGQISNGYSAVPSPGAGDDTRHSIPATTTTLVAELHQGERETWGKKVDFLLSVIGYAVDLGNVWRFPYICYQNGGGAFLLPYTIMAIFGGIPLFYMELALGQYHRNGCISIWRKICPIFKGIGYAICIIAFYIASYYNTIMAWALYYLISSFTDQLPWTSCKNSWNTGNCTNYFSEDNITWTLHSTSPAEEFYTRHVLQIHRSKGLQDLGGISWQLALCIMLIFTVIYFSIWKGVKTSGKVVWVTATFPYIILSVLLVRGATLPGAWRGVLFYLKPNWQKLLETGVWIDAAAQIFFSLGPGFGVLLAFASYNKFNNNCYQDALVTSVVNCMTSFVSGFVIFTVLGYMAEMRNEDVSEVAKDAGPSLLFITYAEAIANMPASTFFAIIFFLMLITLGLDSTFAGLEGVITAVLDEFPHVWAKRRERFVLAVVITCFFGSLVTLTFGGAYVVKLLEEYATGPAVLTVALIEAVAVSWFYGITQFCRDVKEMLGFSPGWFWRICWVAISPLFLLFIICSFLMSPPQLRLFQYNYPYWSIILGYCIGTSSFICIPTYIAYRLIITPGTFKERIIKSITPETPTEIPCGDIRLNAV

Row | Structure (SMILES) | IC50 (hSERT; read-out: SERT IC50) | IC50 (NK-1) | IC50 (hSERT; SERT IC50 (nM))
1 | Cn1cc2cc(C(F)(F)F)cc(COCC3(c4ccccc4)CCNCC3)c2n1 [Example 12, 2-Methyl-7-(((4-phenylpiperidin-4-yl)methoxy)methyl)-5-(trifluoromethyl)-2H-indazole] | 0.01 to 100 nM | 0.01 to 100 nM | 
2 | CN1CCC(COCc2cc(C(F)(F)F)cc3cnn(C)c23)(c2ccccc2)CC1 [Example 13, 1-Methyl-7-(((1-methyl-4-phenylpiperidin-4-yl)methoxy)methyl)-5-(trifluoromethyl)-1H-indazole] | 0.01 to 100 nM | 0.01 to 100 nM | 
3 | CN1CCC(COCc2cc(C(F)(F)F)cc3cn(C)nc23)(c2ccccc2)CC1 [Example 14, 2-Methyl-7-(((1-methyl-4-phenylpiperidin-4-yl)methoxy)methyl)-5-(trifluoromethyl)-2H-indazole] | 0.01 to 100 nM | 0.01 to 100 nM | 
4 | Fc1ccc(C2(COCc3cc(C(F)(F)F)cc4cn[nH]c34)CCNCC2)cc1 [Example 15, 7-(((4-(4-Fluorophenyl)piperidin-4-yl)methoxy)methyl)-5-(trifluoromethyl)-1H-indazole] | 0.01 to 100 nM | 0.01 to 100 nM | 
5 | CN1CCC(COCc2cc(C(F)(F)F)cc3cn[nH]c23)(c2ccc(F)cc2)CC1 [Example 16, 7-(((4-(4-Fluorophenyl)-1-methylpiperidin-4-yl)methoxy)methyl)-5-(trifluoromethyl)-1H-indazole] | 0.01 to 100 nM | 0.01 to 100 nM | 
6 | Cn1ncc2cc(C(F)(F)F)cc(COCC3(c4ccc(F)cc4)CCNCC3)c21 [Example 17, 7-(((4-(4-Fluorophenyl)piperidin-4-yl)methoxy)methyl)-1-methyl-5-(trifluoromethyl)-1H-indazole] | 0.01 to 100 nM | 0.01 to 100 nM | 
7 | Cn1cc2cc(C(F)(F)F)cc(COCC3(c4ccc(F)cc4)CCNCC3)c2n1 [Example 18, 7-(((4-(4-Fluorophenyl)piperidin-4-yl)methoxy)methyl)-2-methyl-5-(trifluoromethyl)-2H-indazole] | 0.01 to 100 nM | 0.01 to 100 nM | 
8 | CN1CCC(COCc2cc(C(F)(F)F)cc3cnn(C)c23)(c2ccc(F)cc2)CC1 [Example 19, 7-(((4-(4-Fluorophenyl)-1-methylpiperidin-4-yl)methoxy)methyl)-1-methyl-5-(trifluoromethyl)-1H-indazole] | 0.01 to 100 nM | 0.01 to 100 nM | 
9 | c1ccc(C2(COCc3cccc4cn[nH]c34)CCNCC2)cc1 [Example 34, 7-(((4-Phenylpiperidin-4-yl)methoxy)methyl)-1H-indazole] | 0.01 to 100 nM | 100 to 300 nM | 
10 | FC(F)(F)c1cc(COCC2(c3ccccc3)CCNCC2)c2[nH]nc(C3CC3)c2c1 [Example 35, 3-Cyclopropyl-7-(((4-phenylpiperidin-4-yl)methoxy)methyl)-5-(trifluoromethyl)-1H-indazole] | 0.01 to 100 nM | 0.01 to 100 nM | 
11 | FC(F)(F)c1cc(COCC2(c3ccccc3)CCNCC2)c2[nH]nc(Br)c2c1 [Example 36, 3-Bromo-7-(((4-phenylpiperidin-4-yl)methoxy)methyl)-5-(trifluoromethyl)-1H-indazole] | 0.01 to 100 nM | 0.01 to 100 nM | 
12 | Cc1n[nH]c2c(COCC3(c4ccccc4)CCNCC3)cc(C(F)(F)F)cc12 [Example 37, 3-Methyl-7-(((4-phenylpiperidin-4-yl)methoxy)methyl)-5-(trifluoromethyl)-1H-indazole] | 0.01 to 100 nM | 0.01 to 100 nM | 
13 | c1ccc(C2(COCc3cc(C4CC4)cc4cn[nH]c34)CCNCC2)cc1 [Example 45, 5-Cyclopropyl-7-(((4-phenylpiperidin-4-yl)methoxy)methyl)-1H-indazole] | 0.01 to 100 nM | 0.01 to 100 nM | 
14 | CC(OCC1(c2ccc(F)cc2)CCN(C)CC1)c1cc(N(C)C)cc2cn[nH]c12 (centres unmarked) [Example 51, 7-(1-((4-(4-Fluorophenyl)-1-methylpiperidin-4-yl)methoxy)ethyl)-N,N-dimethyl-1H-indazol-5-amine] | 0.01 to 100 nM | 0.01 to 100 nM | 
15 | CN1CCC(COCc2cc(-c3ccc(C#N)cc3)cc3cnn(C4CC4)c23)(c2ccccc2)CC1 [Example 65, 4-(1-Cyclopropyl-7-(((1-methyl-4-phenylpiperidin-4-yl)methoxy)methyl)-1H-indazol-5-yl)benzonitrile] |  | 100 to 300 nM | 0.01 to 100 nM
16 | CN1CCC(COCc2cc(C(F)(F)F)cc3cc[nH]c23)(c2ccccc2)CC1 [Example 66, 7-(((1-Methyl-4-phenylpiperidin-4-yl)methoxy)methyl)-5-(trifluoromethyl)-1H-indole] | 0.01 to 100 nM | 0.01 to 100 nM | 
17 | CN1CCC(COCc2cc(C(F)(F)F)cc3ccn(C)c23)(c2ccccc2)CC1 [Example 67, 1-Methyl-7-(((1-methyl-4-phenylpiperidin-4-yl)methoxy)methyl)-5-(trifluoromethyl)-1H-indole] | 0.01 to 100 nM | 0.01 to 100 nM | 
18 | CN1CCC(COCc2cc(C(F)(F)F)cc3cc[nH]c23)(c2ccc(F)cc2)CC1 [Example 68, 7-(((1-Methyl-4-(4-fluorophenyl)piperidin-4-yl)methoxy)methyl)-5-(trifluoromethyl)-1H-indole] | 0.01 to 100 nM | 0.01 to 100 nM | 
19 | CN1CCC(COCc2cc(C(F)(F)F)cc3ccn(C)c23)(c2ccc(F)cc2)CC1 [Example 69, 1-Methyl-7-(((1-methyl-4-(4-fluorophenyl)piperidin-4-yl)methoxy)methyl)-5-(trifluoromethyl)-1H-indole] | 0.01 to 100 nM | 0.01 to 100 nM | 
20 | CN1CCC(COCc2cc(C(F)(F)F)cc3[nH]ccc23)(c2ccccc2)CC1 [Example 76, 4-(((1-Methyl-4-phenylpiperidin-4-yl)methoxy)methyl)-6-(trifluoromethyl)-1H-indole 2,2,2-trifluoroacetate] | 0.01 to 100 nM | 0.01 to 100 nM | 
21 | CN1CCC(COCc2cc(C(F)(F)F)cc3c2ccn3C)(c2ccccc2)CC1 [Example 77, 1-Methyl-4-(((1-methyl-4-phenylpiperidin-4-yl)methoxy)methyl)-6-(trifluoromethyl)-1H-indole 2,2,2-trifluoroacetate] | 0.01 to 100 nM | 0.01 to 100 nM | 
22 | CN1CCC(COCc2cc(C(F)(F)F)cc3nnn(C)c23)(c2ccc(F)cc2)CC1 [Example 78, 7-(((4-(4-Fluorophenyl)-1-methylpiperidin-4-yl)methoxy)methyl)-1-methyl-5-(trifluoromethyl)-1H-benzo[d][1,2,3]triazole] | 0.01 to 100 nM | 100 to 300 nM | 
23 | CN1CCC(COCc2cc(C(F)(F)F)cc3nn(C)nc23)(c2ccc(F)cc2)CC1 [Example 79, 4-(((4-(4-Fluorophenyl)-1-methylpiperidin-4-yl)methoxy)methyl)-2-methyl-6-(trifluoromethyl)-2H-benzo[d][1,2,3]triazole] | 0.01 to 100 nM | 0.01 to 100 nM | 
24 | CN1CCC(COCc2cc(C(F)(F)F)cc3c2nnn3C)(c2ccc(F)cc2)CC1 [Example 80, 4-(((4-(4-Fluorophenyl)-1-methylpiperidin-4-yl)methoxy)methyl)-1-methyl-6-(trifluoromethyl)-1H-benzo[d][1,2,3]triazole] | 0.01 to 100 nM | 100 to 300 nM | 
25 | CN1CCC(COCc2nc3cc(-c4ccc(C#N)cc4)ccc3n2CC2CC2)(c2ccccc2)CC1 [Example 81, 4-(1-(Cyclopropylmethyl)-2-(((1-methyl-4-phenylpiperidin-4-yl)methoxy)methyl)-1H-benzo[d]imidazol-5-yl)benzonitrile] | 0.01 to 100 nM | > 300 nM | 
